Reference: the supplement of paper PMC5579334

How the values were obtained:
HS-PSS [1] = experiment: drug sensitivity score (DSS, CellTox-Green cytotoxicity, 72 h) (DSS (dimensionless)); higher = more cytotoxic; extreme values may be limits of the assay
How it was run: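 MPNST cell lines and primary human Schwann cells were incubated 72 h at 37 °C in 384-well plates holding five 10-fold compound dilutions. CellTox-Green was added before seeding at a final 1:1000 dilution and reported fluorescence from DNA released by disrupted cells. Signals were scaled to vehicle and positive-control wells, and cultures failing plate quality control were dropped. Drug sensitivity score and relative IC50 come from four-parameter logistic fits, with IC50 censored at the top concentration.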

HS-PSS [2] = experiment: % inhibition of CellTiter-Glo viability at highest tested concentration (72 h), relative to DMSO and benzethonium chloride controls; higher = more inhibition
How it was run: (§1)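 Viability was scored by CellTiter-Glo ATP luminescence, scaled from vehicle to positive-control wells, with duplicates averaged where present. The cells, MPNST lines and primary human Schwann cells at 750–1000 per well, sat 72 h at 37 °C, 5% CO2, in 384-well plates preprinted with each compound at five concentrations in 10-fold steps. Four-parameter logistic fits were run on the data. These fits give drug sensitivity score and relative IC50 censored at the top concentration, and percent inhibition is reported at the top concentration.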

HS-Sch-2 [3] = experiment: as above
How it was run: as §1

YST-1 [4] = experiment: as above
How it was run: as §1

HS-PSS [5] = experiment: drug sensitivity score (DSS, CellTiter-Glo viability, 72 h) (DSS (dimensionless)); higher = more sensitive; extreme values may be limits of the assay
How it was run: as §1

HS-Sch-2 [6] = experiment: as above
How it was run: as §1

YST-1 [7] = experiment: as above
How it was run: as §1

| Compound | drug sensitivity score (HS-PSS [1]) | % inhibition (HS-PSS [2]) | % inhibition (HS-Sch-2 [3]) | % inhibition (YST-1 [4]) | drug sensitivity score (HS-PSS [5]) | drug sensitivity score (HS-Sch-2 [6]) | drug sensitivity score (YST-1 [7]) |
| --- | --- | --- | --- | --- | --- | --- | --- |
| C=CC(=O)Nc1cccc(Nc2nc(Nc3ccc(OCCOC)cc3)ncc2F)c1 [Spebrutinib] (max concentration tested 1000 nM) | 0 | 20.7% | 12.6% | 15.3% | 0.48 | 0.45 | 0.89 |
| Cn1ncnc1[C@H]1c2n[nH]c(=O)c3cc(F)cc(c23)N[C@@H]1c1ccc(F)cc1 [Talazoparib] (max concentration tested 1000 nM) | 0 | 21.9% | 25.4% | 61.3% | 3.37 | 1.84 | 15.5 |
| Cc1nc(=O)c2cc(CN(C)c3ccc(C(=O)N[C@@H](CCC(=O)O)C(=O)O)s3)ccc2[nH]1 [Raltitrexed] (max concentration tested 1000 nM) | 0 | 14.7% | 71.5% | 29.9% | 3.16 | 15.1 | 6.69 |
| CNC(=O)c1ccc(-c2cnc3ncc(Cc4ccc5ncccc5c4)n3n2)cc1F [NVP-INC280] (max concentration tested 1000 nM) | 0 | 7.48% | 6.7% | 12.3% | 0 | 1.29 | 0.19 |
| CC(C)c1cc(C(=O)N2Cc3ccc(CN4CCN(C)CC4)cc3C2)c(O)cc1O [Onalespib] (max concentration tested 2500 nM) | 6.31 | 81.9% | 101% | 75.8% | 13.2 | 21.4 | 12.6 |
| O=C(/C=C\n1cnc(-c2cc(C(F)(F)F)cc(C(F)(F)F)c2)n1)NNc1cnccn1 [Selinexor] (max concentration tested 10000 nM) | 1.86 | 72.3% | 101% | 95.3% | 11.3 | 19.8 | 21.4 |
| Cn1nnc2c(C(N)=O)ncn2c1=O [Temozolomide] (max concentration tested 100000 nM) | 0 | 8.55% | 20.4% | 11.6% | 0 | 1.67 | 0.08 |
| Cc1cc(C)c(CNC(=O)c2cc(-c3ccc(CN4CCOCC4)cc3)cc3c2cnn3C2CCCC2)c(=O)[nH]1 [EPZ-5687] (max concentration tested 10000 nM) | 0 | -1.01% | -5.4% | 1.37% | 0 | 0 | 0 |
| C[C@@H]1CN(CC(=O)Nc2ccc3c(c2)Cc2cccc(-c4cc(=O)cc(N5CCOCC5)o4)c2S3)C[C@H](C)O1 (max concentration tested 25000 nM) | 0 | 45.7% | 97.9% | 41.4% | 1.79 | 8.7 | 1.74 |
| COC(=O)N[C@@H](C)CNc1nccc(-c2cn(C(C)C)nc2-c2cc(Cl)cc(NS(C)(=O)=O)c2F)n1 [Encorafenib] (max concentration tested 1000 nM) | 0 | 14% | 14.4% | 3.93% | 2.1 | 0.12 | 0 |
| CNC(=O)CN1CCC(Oc2cc3c(Nc4cccc(Cl)c4F)ncnc3cc2OC)CC1 [Sapitinib] (max concentration tested 1000 nM) | 0 | 9.33% | 11.1% | 15.3% | 0 | 0.17 | 0.48 |
| CCN(c1cc(-c2ccc(CN3CCOCC3)cc2)cc(C(=O)NCc2c(C)cc(C)[nH]c2=O)c1C)C1CCOCC1 [Tazemetostat] (max concentration tested 10000 nM) | 0 | 10.9% | 12.6% | 0.37% | 0.52 | 0.07 | 0 |
| CC[C@@]1(O)C(=O)OCc2c1cc1n(c2=O)Cc2cc3ccccc3nc2-1 [Camptothecin] (max concentration tested 5000 nM) | 10.2 | 93.1% | 99.9% | 99.6% | 14.9 | 22.2 | 23.6 |
| COC(=O)c1ccc2c(c1)[nH]c1ncnc(NCCCN3CCCCC3)c12 [UM729] (max concentration tested 10000 nM) | 0 | 13.2% | 29% | 35.4% | 0.05 | 1.25 | 3.85 |
| CCn1cc(-c2ccnc3[nH]c(-c4cccc(CN(C)C)c4)cc23)c(-c2ccc(NC(=O)N(C)C)cc2)n1 (max concentration tested 1000 nM) | 0 | 46.2% | 54% | 33.4% | 4.28 | 4.77 | 10.8 |
| O=C(O)CC1CC(c2ccccc2)=NO1 (stereo not given) [VGX-1027] (max concentration tested 10000 nM) | 0 | 4.47% | 13.4% | 4% | 0 | 0.12 | 0 |
| CCOc1cc2ncc(C#N)c(Nc3ccc(F)c(Cl)c3)c2cc1NC(=O)/C=C/CN(C)C [Pelitinib] (max concentration tested 2500 nM) | 1.05 | 73.9% | 89.6% | 47.9% | 12.8 | 11 | 4.87 |
| CC(=O)O[C@]1(C(C)=O)CC[C@H]2[C@@H]3C=C(C)C4=CC(=O)CC[C@]4(C)[C@H]3CC[C@@]21C [Megestrol acetate] (max concentration tested 10000 nM) | 0 | -2.66% | 2.53% | 6.88% | 0 | 0 | 0 |

| Compound | drug sensitivity score (HS-PSS [1]) | % inhibition (HS-PSS [2]) | % inhibition (HS-Sch-2 [3]) | % inhibition (YST-1 [4]) | drug sensitivity score (HS-PSS [5]) | drug sensitivity score (HS-Sch-2 [6]) | drug sensitivity score (YST-1 [7]) |
| --- | --- | --- | --- | --- | --- | --- | --- |
| O=C(Nc1cc(Cl)cc2c1[nH]c1cnccc12)c1cccnc1 [PS-1145] (max concentration tested 25000 nM) | 0 | 13.7% | 5.78% | 16.9% | 0.49 | 0 | 3.62 |
| CCc1cc2c(cc1N1CCC(N3CCOCC3)CC1)C(C)(C)c1[nH]c3cc(C#N)ccc3c1C2=O [Alectinib] (max concentration tested 1000 nM) | 0 | 42.8% | 2.24% | 17.5% | 7.01 | 0 | 0.28 |
| Clc1ccccc1C(c1ccccc1)(c1ccccc1)n1cccn1 [TRAM-34] (max concentration tested 1000 nM) | 0 | 13.4% | 15.5% | 3.42% | 0.59 | 0.38 | 0 |
| CNC(=O)c1ccccc1Nc1cc(Nc2ccc(N3CCOCC3)cc2OC)ncc1C(F)(F)F [VS-4718] (max concentration tested 10000 nM) | 0.03 | 68.6% | 50.4% | 45.2% | 3.23 | 3.18 | 4.99 |
| CNC(=O)c1ccc(C)c(-n2c(C)cc(OCc3ccc(F)cc3F)c(Br)c2=O)c1 (max concentration tested 1000 nM) | 0 | 8.35% | 4% | 38.4% | 0 | 0 | 5.16 |
| COCC(=O)NC/C=C/c1ccc2ncnc(Nc3ccc(Oc4ccc(C)nc4)c(C)c3)c2c1 (max concentration tested 10000 nM) | 0 | 56.7% | 32.2% | 19.9% | 5.3 | 3.05 | 0.62 |
| CCN(CC)CCN(Cc1ccc(-c2ccc(C(F)(F)F)cc2)cc1)C(=O)Cn1c(SCc2ccc(F)cc2)nc(=O)c2c1CCC2 [Darapladib] (max concentration tested 1000 nM) | 3.71 | 53.3% | 33% | 19.5% | 3.85 | 2.38 | 1.09 |
| CC(=O)NCC(=O)N1[C@@H]2CC[C@H]1c1ccc(Nc3ncc(C(F)(F)F)c(NC4CCC4)n3)cc12 (max concentration tested 10000 nM) | 1.86 | 87.8% | 99.3% | 82.8% | 9.91 | 11.5 | 10.5 |
| CCC(C)n1ncn(-c2ccc(N3CCN(c4ccc(OCC5COC(Cn6cncn6)(c6ccc(Cl)cc6Cl)O5)cc4)CC3)cc2)c1=O (stereo not given) [Itraconazole] (max concentration tested 5000 nM) | 0 | 50.9% | 11.3% | 33.2% | 4.25 | 0.33 | 1.58 |
| Cc1nc(-c2cn3c(n2)-c2ccc(-c4cnn(C(C)(C)C(N)=O)c4)cc2OCC3)n(C(C)C)n1 [Taselisib] (max concentration tested 1000 nM) | 0 | 26.4% | 18.1% | 66.6% | 0.7 | 0.87 | 11.9 |
| CN(C[C@@H]1COCCO1)S(=O)(=O)Nc1ccc2ccc3ncc(-c4cnn(C)c4)cc3c(=O)c2c1 [MK-2461] (max concentration tested 10000 nM) | 0 | 25.5% | 55.1% | 67.3% | 0.69 | 2.68 | 6.02 |
| Cc1cc(OCc2nnc(SC3CCCC3)n2-c2cccnc2)ccc1-c1ccc(S(C)(=O)=O)cc1 [NMS-873] (max concentration tested 10000 nM) | 5.58 | 99.9% | 101% | 99.9% | 22.9 | 19.2 | 9.52 |
| CC(C)Nc1cc(-c2c[nH]c(C(=O)N[C@H](CO)c3cccc(Cl)c3)c2)c(Cl)cn1 [Ulixertinib] (max concentration tested 10000 nM) | 0 | 53% | 68.7% | 41.1% | 2.52 | 6.76 | 3.93 |
| Cc1ccccc1C(C(=O)NC1CCCCC1)N(C(=O)Cn1ccnc1C)c1cccc(F)c1 (stereo not given) [AGI-5198] (max concentration tested 10000 nM) | 0 | 11.5% | 4.74% | 1.43% | 0.2 | 0.6 | 0 |
| Cc1c(F)cc(C(=O)NC2CC2)cc1-c1ccc(C(=O)NCC(C)(C)C)cn1 [Losmapimod] (max concentration tested 10000 nM) | 0 | 8.01% | 1.17% | 32.3% | 0 | 0 | 10.1 |
| O=C(O)c1ccc(Nc2ncc3c(n2)-c2ccc(Cl)cc2C(c2c(F)cccc2F)=NC3)cc1 [MLN-8054] (max concentration tested 10000 nM) | 0 | 36.4% | 60.3% | 46.6% | 3.57 | 6.25 | 6.64 |
| CCn1c(=O)c(-c2cc[nH]n2)cc2c(C)nc(N)nc21 [Voxtalisib] (max concentration tested 10000 nM) | 0 | 48.4% | 64.5% | 86.5% | 3.33 | 4.83 | 9.29 |
